Common to all, as to assay: Inhibition Assays of p110α/p85α, p110β/p85α, p110δ/p85α, and p110γ
Experiment [1] addresses T1, Phosphatidylinositol 4,5-bisphosphate 3-kinase catalytic subunit delta isoform (Homo sapiens, UniProt O00329).
T1 sequence (O00329 whole entry): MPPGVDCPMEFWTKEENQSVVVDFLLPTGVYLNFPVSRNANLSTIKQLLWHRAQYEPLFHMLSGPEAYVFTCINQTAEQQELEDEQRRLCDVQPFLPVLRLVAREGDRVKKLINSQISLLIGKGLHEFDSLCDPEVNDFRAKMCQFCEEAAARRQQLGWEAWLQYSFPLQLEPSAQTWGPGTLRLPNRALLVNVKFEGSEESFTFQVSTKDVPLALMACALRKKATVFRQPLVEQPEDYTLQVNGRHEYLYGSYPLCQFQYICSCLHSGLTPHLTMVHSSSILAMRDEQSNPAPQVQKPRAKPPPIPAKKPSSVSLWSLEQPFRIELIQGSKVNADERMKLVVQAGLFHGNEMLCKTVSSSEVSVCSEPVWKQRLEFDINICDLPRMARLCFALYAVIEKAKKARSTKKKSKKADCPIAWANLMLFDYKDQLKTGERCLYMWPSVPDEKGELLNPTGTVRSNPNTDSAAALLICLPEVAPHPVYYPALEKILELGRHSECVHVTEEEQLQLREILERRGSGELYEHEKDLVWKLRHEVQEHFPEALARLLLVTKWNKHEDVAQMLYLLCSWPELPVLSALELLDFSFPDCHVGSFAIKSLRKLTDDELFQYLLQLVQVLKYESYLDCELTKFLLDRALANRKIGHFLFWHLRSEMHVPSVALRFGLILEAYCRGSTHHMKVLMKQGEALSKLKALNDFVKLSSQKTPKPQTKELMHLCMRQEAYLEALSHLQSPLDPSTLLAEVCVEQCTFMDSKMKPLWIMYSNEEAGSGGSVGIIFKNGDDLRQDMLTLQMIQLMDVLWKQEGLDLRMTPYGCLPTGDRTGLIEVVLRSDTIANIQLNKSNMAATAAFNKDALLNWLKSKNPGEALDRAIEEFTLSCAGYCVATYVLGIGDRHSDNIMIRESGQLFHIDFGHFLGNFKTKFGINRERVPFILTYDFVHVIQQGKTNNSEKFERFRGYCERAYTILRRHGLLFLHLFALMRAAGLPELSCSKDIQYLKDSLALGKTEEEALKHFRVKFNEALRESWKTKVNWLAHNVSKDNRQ

In experiment [2] the target is T2, Phosphatidylinositol 4,5-bisphosphate 3-kinase catalytic subunit gamma isoform (Homo sapiens, UniProt P48736).
T2 construct: gene PIK3CG
T2 sequence (P48736 whole entry, looked up, canonical isoform): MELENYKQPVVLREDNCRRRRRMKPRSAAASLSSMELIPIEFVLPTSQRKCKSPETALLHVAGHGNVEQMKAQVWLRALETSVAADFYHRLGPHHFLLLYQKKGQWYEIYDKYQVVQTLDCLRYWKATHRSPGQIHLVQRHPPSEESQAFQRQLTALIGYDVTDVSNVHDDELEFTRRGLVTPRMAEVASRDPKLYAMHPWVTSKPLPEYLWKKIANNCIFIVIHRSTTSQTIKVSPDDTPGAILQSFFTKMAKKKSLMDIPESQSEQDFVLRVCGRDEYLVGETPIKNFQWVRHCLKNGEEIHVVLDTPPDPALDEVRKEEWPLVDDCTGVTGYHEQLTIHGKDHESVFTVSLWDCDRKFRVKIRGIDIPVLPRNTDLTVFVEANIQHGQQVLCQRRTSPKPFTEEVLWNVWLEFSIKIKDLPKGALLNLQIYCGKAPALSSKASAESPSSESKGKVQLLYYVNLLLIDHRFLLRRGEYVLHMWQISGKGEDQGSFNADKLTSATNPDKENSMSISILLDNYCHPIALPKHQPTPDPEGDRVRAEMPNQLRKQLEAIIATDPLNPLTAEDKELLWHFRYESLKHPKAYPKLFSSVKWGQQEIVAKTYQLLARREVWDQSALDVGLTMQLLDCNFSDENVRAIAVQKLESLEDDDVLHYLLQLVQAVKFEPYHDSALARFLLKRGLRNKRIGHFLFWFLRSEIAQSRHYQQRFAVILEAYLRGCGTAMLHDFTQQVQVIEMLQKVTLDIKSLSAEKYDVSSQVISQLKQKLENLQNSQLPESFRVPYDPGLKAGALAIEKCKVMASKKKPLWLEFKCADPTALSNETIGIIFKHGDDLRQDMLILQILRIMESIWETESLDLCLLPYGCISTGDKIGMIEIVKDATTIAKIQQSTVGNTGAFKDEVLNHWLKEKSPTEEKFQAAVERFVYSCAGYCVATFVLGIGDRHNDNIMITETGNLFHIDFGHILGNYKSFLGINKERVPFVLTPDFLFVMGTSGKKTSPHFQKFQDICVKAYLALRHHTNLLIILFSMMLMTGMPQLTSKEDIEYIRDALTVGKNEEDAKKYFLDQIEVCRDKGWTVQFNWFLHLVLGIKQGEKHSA

Experiment [3] deals with Phosphatidylinositol 4,5-bisphosphate 3-kinase catalytic subunit alpha isoform (Homo sapiens, UniProt P42336).
Sequence of Phosphatidylinositol 4,5-bisphosphate 3-kinase catalytic subunit alpha isoform (P42336 whole entry, canonical isoform): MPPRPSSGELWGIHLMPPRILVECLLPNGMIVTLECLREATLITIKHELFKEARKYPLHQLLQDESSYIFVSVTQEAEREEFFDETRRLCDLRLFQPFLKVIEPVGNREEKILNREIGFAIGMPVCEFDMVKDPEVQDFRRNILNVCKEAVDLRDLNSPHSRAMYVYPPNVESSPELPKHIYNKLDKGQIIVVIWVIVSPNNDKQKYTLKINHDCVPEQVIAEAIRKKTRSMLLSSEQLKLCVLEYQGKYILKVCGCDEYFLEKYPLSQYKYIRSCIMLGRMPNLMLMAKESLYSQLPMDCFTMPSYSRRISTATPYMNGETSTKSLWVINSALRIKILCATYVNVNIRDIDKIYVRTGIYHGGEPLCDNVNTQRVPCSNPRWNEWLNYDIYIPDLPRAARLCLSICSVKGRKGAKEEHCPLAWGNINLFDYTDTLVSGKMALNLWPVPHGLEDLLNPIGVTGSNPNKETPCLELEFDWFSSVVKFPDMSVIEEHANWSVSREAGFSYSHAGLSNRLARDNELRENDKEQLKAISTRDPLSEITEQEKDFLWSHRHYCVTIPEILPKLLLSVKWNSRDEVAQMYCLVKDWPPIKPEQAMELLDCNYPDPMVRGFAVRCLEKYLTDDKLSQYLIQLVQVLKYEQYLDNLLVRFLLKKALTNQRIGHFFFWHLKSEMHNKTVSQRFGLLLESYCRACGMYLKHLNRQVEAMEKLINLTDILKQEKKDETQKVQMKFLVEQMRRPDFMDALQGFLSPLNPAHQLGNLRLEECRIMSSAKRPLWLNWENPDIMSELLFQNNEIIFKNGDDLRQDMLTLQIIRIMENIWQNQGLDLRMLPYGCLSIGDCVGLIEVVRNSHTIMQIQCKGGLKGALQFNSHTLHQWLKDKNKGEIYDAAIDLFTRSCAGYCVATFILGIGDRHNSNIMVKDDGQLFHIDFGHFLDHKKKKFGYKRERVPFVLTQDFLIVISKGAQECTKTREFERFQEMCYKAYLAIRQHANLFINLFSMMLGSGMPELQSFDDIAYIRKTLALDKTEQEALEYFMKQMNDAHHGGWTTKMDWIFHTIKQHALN
For experiment [4], the target named is Phosphatidylinositol 4,5-bisphosphate 3-kinase catalytic subunit beta isoform (Homo sapiens, UniProt P42338).
Sequence of Phosphatidylinositol 4,5-bisphosphate 3-kinase catalytic subunit beta isoform (P42338 whole entry, canonical isoform): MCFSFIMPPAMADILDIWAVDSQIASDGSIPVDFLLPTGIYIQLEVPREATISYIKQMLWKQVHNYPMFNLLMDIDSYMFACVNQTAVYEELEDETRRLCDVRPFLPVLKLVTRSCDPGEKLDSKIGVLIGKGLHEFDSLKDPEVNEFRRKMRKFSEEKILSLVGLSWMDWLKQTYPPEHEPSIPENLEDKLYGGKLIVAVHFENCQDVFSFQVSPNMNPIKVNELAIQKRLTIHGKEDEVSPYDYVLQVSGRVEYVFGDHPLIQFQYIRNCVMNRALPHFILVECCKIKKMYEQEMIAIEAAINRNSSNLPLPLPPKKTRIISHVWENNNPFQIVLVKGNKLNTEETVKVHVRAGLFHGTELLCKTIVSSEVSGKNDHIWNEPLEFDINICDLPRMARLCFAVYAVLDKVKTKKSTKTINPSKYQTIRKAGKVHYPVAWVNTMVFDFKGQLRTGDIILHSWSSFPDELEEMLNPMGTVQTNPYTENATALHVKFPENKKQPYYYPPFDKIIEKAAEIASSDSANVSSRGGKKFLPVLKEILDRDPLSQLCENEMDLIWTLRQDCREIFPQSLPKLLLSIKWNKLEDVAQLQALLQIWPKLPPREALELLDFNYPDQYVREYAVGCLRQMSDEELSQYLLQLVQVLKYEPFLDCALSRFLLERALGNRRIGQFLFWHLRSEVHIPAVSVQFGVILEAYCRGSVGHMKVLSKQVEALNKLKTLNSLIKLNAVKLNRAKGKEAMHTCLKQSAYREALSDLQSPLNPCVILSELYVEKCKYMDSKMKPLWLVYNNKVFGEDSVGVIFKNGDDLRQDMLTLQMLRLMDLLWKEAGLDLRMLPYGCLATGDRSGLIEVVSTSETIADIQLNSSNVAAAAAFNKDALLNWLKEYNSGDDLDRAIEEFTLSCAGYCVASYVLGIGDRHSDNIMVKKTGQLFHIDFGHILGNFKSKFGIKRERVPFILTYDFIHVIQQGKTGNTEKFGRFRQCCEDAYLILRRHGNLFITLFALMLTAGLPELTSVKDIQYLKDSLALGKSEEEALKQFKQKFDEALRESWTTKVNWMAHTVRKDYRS

30 compounds from BindingDB's records for patent US20250170122 (Intellikine, 2025) can be followed below.

What is called IC50 is the concentration at which inhibition is half-maximal. Higher therefore signals a need for much substance.

With `Cc1ccccc1-n1c(Cn2cnc3c(N)ncnc32)cc2cccc(C)c2c1=O` [US20250170122, Compound 5], the IC50 in experiment [1] is < 10000 nM; in experiment [2] it was > 10000 nM.

As for `Cc1cccc2cc(Cn3nc(-c4cccc(Cl)c4)c4c(N)ncnc43)n(-c3ccccc3F)c(=O)c12` [US20250170122, Compound 38], the IC50 in experiment [2] was < 10000 nM.

On to `Cc1cccc2cc(Cn3nc(-c4ccc(O)cc4)c4c(N)ncnc43)n(-c3ccccc3F)c(=O)c12` [US20250170122, Compound 46], for which the IC50 in experiment [1] is < 10000 nM; in experiment [3], > 10000 nM; in experiment [4] it was > 10000 nM; in experiment [2], < 1000 nM.

As for `Cc1cccc2cc(Cn3nc(I)c4c(N)ncnc43)n(C3CCCC3)c(=O)c12` [US20250170122, Compound 57], the IC50 in experiment [1] was < 1000 nM; in experiment [3], > 10000 nM; in experiment [4], > 10000 nM; in experiment [2], < 10000 nM.

Consider `Cc1cccc2cc(Cn3nc(-c4ccc(Cl)c(O)c4)c4c(N)ncnc43)n(C3CCCC3)c(=O)c12` [US20250170122, Compound 71], for which the IC50 in experiment [1] was < 1000 nM; in experiment [3], > 10000 nM; in experiment [4], < 10000 nM; in experiment [2], < 1000 nM.

With `CC(C)n1c(Cn2nc(I)c3c(N)ncnc32)cc2ccccc2c1=O` [US20250170122, Compound 129], the IC50 in experiment [1] is < 10000 nM.

Consider `CC(=O)Nc1nc2ccc(-c3nn(Cc4cc5cccc(C)c5c(=O)n4-c4ccccc4)c(C)c3CN)cc2s1` [US20250170122, Compound 177], for which the IC50 in experiment [1] and in experiment [2] was < 100 nM throughout.

`Cc1cccc2cc(C(C)Nc3ncnc4[nH]cnc34)n(-c3ccccc3F)c(=O)c12` (stereo not drawn) [US20250170122, Compound 203]: the IC50 in experiment [2] is < 100 nM.

As for `C[C@H](Nc1ncnc2[nH]cnc12)c1cc2cccc(Cl)c2c(=O)n1-c1cccc(F)c1` [US20250170122, Compound 328], the IC50 in experiment [1] and in experiment [2] was < 100 nM each time.

For `C[C@H](Nc1ncnc2[nH]cnc12)c1cc2cccc(Cl)c2c(=O)n1-c1ccc(F)cc1` [US20250170122, Compound 329], the concentration for half-maximal inhibition (IC50) in experiment [1], in experiment [4] and in experiment [2] was < 100 nM in each case.

With `C[C@H](Nc1ncnc2[nH]cnc12)c1cc2cccc(F)c2c(=O)n1-c1ccccc1` [US20250170122, Compound 330], the IC50 in experiment [1] and in experiment [2] was < 100 nM each time.

With `C[C@H](Nc1ncnc2[nH]cnc12)c1cc2cccc(F)c2c(=O)n1-c1cccc(F)c1` [US20250170122, Compound 331], in experiment [1], the IC50 is < 100 nM.

As for `C[C@H](Nc1ncnc2[nH]cnc12)c1cc2cccc(F)c2c(=O)n1-c1ccc(F)cc1` [US20250170122, Compound 332], the IC50 in experiment [2] was < 100 nM.

Turning to `Cc1ccccc1-n1c(Cn2nc(-c3cn[nH]c3)c3c(N)ncnc32)cc2cccc(Cl)c2c1=O` [US20250170122, Compound 336], the IC50 in experiment [1] and in experiment [2] was < 100 nM throughout.

Take `Nc1ncnc2c1c(-c1cn[nH]c1)nn2Cc1cc2cccc(Cl)c2c(=O)n1-c1ccccc1F` [US20250170122, Compound 337]: the IC50 in experiment [1] is < 100 nM.

Consider `Nc1ncnc2c1c(-c1cn[nH]c1)nn2Cc1cc2cccc(Cl)c2c(=O)n1-c1ccccc1` [US20250170122, Compound 338], for which the IC50 in experiment [1] and in experiment [2] was < 100 nM throughout.

`Nc1ncnc2c1c(-c1cn[nH]c1)nn2Cc1cc2cccc(Cl)c2c(=O)n1-c1cccc(F)c1` [US20250170122, Compound 339]: in experiment [1], the IC50 is < 100 nM.

On to `C[C@H](Nc1ncnc2ccccc12)c1cc2cccc(Cl)c2c(=O)n1-c1ccccc1` [US20250170122, Compound 342], for which the IC50 in experiment [2] is < 100 nM.

Turning to `C[C@H](Nc1ncnc2sccc12)c1cc2cccc(Cl)c2c(=O)n1-c1ccccc1` [US20250170122, Compound 343], the IC50 in experiment [1] and in experiment [2] was < 100 nM in each case.

`C[C@H](Nc1ncnc2ccsc12)c1cc2cccc(Cl)c2c(=O)n1-c1ccccc1` [US20250170122, Compound 344]: the IC50 in experiment [1] and in experiment [2] was < 100 nM in each case.

For `C[C@H](Nc1nc(N)ncc1C(F)(F)F)c1cc2cccc(Cl)c2c(=O)n1-c1ccccc1` [US20250170122, Compound 346], the IC50 in experiment [1] and in experiment [2] was < 100 nM throughout.

For `[2H]c1nc2c(N[C@@H](C)c3cc4cccc(Cl)c4c(=O)n3C3CC3)ncnc2[nH]1` [US20250170122, Compound 350], the IC50 in experiment [3] was < 1000 nM.

As for `Cc1csc2ncnc(N[C@@H](C)c3cc4cccc(Cl)c4c(=O)n3-c3ccccc3)c12` [US20250170122, Compound 352], the half-maximal inhibitory concentration (IC50) in experiment [1] and in experiment [2] was < 100 nM each time.

Regarding `CNc1ncc(C(F)(F)F)c(N[C@@H](C)c2cc3cccc(Cl)c3c(=O)n2-c2ccccc2)n1` [US20250170122, Compound 354], the IC50 in experiment [1] and in experiment [2] was < 100 nM each time.

As to `C[C@H](Nc1ncnc2[nH]cnc12)c1cc2ncccc2c(=O)n1-c1ccccc1` [US20250170122, Compound 357], the IC50 in experiment [1] is < 100 nM.

On to `C[C@H](Nc1nc(N)nc2ccccc12)c1cc2cccc(Cl)c2c(=O)n1-c1ccccc1` [US20250170122, Compound 359], for which, in experiment [2], the IC50 is < 100 nM.

Regarding `CC(C)C[C@H](Nc1ncnc2[nH]cnc12)c1cc2cccc(Cl)c2c(=O)n1-c1ccccc1` [US20250170122, Compound 363], in experiment [1], the half-maximal inhibitory concentration (IC50) was < 100 nM.

Regarding `CC(C)[C@H](Nc1ncnc2[nH]cnc12)c1cc2cccc(Cl)c2c(=O)n1-c1ccccc1` [US20250170122, Compound 364], the IC50 in experiment [1] was < 100 nM.

For the compound `C[C@H](Nc1ncnc2[nH]cnc12)c1cc2cccc(Cl)c2c(=O)n1-c1cccc(Cl)c1` [US20250170122, Compound 365], the IC50 in experiment [1] and in experiment [2] was < 100 nM in each case.

On to `C[C@H](Nc1ncnc2[nH]cnc12)c1cc2cccc(Cl)c2c(=O)n1-c1cccc(C(F)(F)F)c1` [US20250170122, Compound 366], for which the IC50 in experiment [1] is < 100 nM.
